Key:
[1] = DRUGMATRIX: Glutamate, NMDA, Agonism radioligand binding (ligand: [3H] CGP-39653); type: cell membranes, Rattus norvegicus, Wistar, Cerebral cortex, Membrane; details: Not Active = under 50% inhibition at 10 µM
[2] = target: Beta-1 adrenergic receptor (Homo sapiens, UniProt P08588); experiment: DRUGMATRIX: Adrenergic beta1 radioligand binding (ligand: [125I] Cyanopindolol); type: cell membranes, CHO-K1, Membrane; details: cho-k1; Not Active = under 50% inhibition at 10 µM
[3] = target: Aldo-keto reductase family 1 member B1 (Rattus norvegicus, UniProt P07943); type: tissue-based, Lens of camera-type eye;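 note: inhibition of aldose reductase enzyme activity, measured with DL-glyceraldehyde as the substrate; in other assays of this panel Not Active means under 50% inhibition at 10 µM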
[4] = target: T1, Estrogen receptor (Homo sapiens, UniProt P03372); details: sf9; note: in other assays of this panel Not Active means under 50% inhibition at 10 µM
T1 sequence (P03372 whole entry): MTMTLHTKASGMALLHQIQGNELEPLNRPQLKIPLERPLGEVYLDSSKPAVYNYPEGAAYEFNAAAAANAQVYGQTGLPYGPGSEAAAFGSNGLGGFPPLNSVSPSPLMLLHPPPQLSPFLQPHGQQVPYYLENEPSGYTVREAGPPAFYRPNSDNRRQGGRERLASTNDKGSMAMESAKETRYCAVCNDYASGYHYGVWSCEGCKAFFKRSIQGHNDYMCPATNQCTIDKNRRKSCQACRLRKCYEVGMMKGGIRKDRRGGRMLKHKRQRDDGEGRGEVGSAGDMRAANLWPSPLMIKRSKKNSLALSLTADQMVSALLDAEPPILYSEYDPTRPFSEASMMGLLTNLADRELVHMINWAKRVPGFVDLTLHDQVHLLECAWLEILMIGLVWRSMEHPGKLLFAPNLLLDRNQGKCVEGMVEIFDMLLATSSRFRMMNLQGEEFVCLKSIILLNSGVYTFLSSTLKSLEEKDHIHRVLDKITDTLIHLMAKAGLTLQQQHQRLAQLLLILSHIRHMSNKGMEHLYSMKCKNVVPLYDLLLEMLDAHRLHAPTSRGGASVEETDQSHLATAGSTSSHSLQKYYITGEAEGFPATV

[5] = target: T2, Receptor-type tyrosine-protein phosphatase C (Homo sapiens, UniProt P08575); set-up: species or system Escherichia coli;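 note: inhibition of CD45 enzyme activity measured using DiFMUP as substrate; in other assays of this panel Not Active means under 50% inhibition at 10 µM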
T2 sequence (P08575 whole entry): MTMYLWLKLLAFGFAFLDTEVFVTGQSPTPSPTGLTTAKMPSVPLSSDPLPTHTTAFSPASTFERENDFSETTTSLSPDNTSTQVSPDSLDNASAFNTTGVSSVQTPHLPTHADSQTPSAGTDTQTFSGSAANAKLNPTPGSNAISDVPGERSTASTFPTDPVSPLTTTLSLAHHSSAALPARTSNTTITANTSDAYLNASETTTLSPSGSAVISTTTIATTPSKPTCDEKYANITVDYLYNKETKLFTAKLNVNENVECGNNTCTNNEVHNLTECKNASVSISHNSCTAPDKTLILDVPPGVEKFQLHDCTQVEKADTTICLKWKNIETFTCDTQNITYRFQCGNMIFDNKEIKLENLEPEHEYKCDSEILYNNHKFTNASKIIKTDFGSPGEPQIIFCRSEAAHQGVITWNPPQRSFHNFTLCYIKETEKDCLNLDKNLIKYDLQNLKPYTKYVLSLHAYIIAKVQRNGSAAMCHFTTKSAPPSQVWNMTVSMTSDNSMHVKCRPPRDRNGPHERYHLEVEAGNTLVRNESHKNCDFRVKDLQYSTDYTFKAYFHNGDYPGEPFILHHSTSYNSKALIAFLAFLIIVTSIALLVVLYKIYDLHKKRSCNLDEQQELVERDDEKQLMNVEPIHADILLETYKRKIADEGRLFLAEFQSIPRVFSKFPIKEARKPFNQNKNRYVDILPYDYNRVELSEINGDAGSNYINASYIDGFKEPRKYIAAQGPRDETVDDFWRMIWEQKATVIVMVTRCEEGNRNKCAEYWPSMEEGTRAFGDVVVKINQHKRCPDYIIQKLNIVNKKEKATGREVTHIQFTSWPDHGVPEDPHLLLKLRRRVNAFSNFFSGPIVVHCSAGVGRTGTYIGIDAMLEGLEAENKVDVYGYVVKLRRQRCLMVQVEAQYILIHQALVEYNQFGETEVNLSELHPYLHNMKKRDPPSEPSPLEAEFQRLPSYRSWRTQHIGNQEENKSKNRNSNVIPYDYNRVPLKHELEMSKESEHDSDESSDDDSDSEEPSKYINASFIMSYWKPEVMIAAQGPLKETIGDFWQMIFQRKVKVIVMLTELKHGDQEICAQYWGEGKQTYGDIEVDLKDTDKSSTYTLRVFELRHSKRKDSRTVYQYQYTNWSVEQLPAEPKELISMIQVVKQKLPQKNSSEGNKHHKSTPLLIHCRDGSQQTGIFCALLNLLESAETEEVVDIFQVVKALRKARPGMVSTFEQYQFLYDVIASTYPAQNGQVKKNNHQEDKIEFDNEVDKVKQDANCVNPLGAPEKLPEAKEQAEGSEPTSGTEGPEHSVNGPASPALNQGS

[6] = target: T3, C-X-C chemokine receptor type 1 (Homo sapiens, UniProt P25024); note: in other assays of this panel Not Active means under 50% inhibition at 10 µM
T3 sequence (P25024 whole entry): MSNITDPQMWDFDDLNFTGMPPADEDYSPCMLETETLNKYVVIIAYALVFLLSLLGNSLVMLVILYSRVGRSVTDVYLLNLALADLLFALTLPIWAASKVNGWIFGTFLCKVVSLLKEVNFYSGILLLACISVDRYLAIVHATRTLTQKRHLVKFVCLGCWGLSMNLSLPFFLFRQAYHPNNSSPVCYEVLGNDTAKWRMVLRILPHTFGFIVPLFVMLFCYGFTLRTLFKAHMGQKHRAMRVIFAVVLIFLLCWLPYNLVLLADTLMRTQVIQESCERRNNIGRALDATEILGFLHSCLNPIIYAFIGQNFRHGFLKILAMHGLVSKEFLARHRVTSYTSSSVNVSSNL

[7] = target: T4, D(4) dopamine receptor (Homo sapiens, UniProt P21917); experiment: DRUGMATRIX: Dopamine D4.2 radioligand binding (ligand: [3H] Spiperone); type: cell membranes, CHO-K1, Membrane; details: cho-k1; Not Active = under 50% inhibition at 10 µM
T4 sequence (P21917 whole entry): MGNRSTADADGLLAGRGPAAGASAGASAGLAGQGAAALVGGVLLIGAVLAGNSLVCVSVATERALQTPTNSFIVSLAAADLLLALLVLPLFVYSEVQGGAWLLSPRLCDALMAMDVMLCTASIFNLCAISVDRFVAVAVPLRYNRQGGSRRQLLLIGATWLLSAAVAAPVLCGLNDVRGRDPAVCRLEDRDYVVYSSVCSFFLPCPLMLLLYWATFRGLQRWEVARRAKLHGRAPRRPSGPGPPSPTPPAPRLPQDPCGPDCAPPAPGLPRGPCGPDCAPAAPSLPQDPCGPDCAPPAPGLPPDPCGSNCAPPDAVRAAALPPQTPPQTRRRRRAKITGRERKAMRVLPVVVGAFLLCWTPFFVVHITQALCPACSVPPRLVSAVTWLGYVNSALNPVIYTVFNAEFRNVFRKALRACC

[8] = DRUGMATRIX: Sigma2 radioligand binding (ligand: [3H] Ifenprodil); type: cell membranes, Rattus norvegicus, Wistar, Brain, Membrane; details: Not Active = under 50% inhibition at 10 µM

Sequence of Beta-1 adrenergic receptor (P08588 whole entry): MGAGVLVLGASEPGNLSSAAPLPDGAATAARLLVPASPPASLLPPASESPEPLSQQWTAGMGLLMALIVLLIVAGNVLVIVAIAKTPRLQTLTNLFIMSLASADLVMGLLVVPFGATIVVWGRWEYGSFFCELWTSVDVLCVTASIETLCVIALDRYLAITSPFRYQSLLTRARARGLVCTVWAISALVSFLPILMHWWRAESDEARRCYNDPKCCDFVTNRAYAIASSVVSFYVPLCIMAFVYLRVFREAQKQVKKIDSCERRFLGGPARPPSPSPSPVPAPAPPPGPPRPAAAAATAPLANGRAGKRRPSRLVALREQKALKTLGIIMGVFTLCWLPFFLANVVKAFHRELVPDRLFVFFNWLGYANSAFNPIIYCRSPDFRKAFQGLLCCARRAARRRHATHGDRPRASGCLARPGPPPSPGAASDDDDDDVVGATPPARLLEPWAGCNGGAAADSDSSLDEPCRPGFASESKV

COc1ccc2cc(CC(=O)O)ccc2c1
Not Active: IC50 [1] | Ki [1] | IC50 [2] | IC50 [3] | IC50 [4] | IC50 [5] | IC50 [6] | IC50 [7] | IC50 [8] | Ki [8]

CC=CC(=O)N(CC)c1ccccc1C
Not Active: IC50 [1] | Ki [1] | IC50 [2] | IC50 [3] | IC50 [4] | IC50 [5] | IC50 [6] | IC50 [7] | IC50 [8] | Ki [8]

CC(/C=C1\SC(=S)N(CC(=O)O)C1=O)=C\c1ccccc1
Not Active: IC50 [1] | Ki [1] | IC50 [2] | IC50 [4] | IC50 [5] | IC50 [6] | IC50 [7] | IC50 [8] | Ki [8]

COC(=O)[C@H](c1ccccc1Cl)N1CCc2sccc2C1 [CLOPIDOGREL]
Not Active: IC50 [1] | Ki [1] | IC50 [3] | IC50 [4] | IC50 [5] | IC50 [6] | IC50 [7] | IC50 [8] | Ki [8]

COc1c(N2CCNC(C)C2)c(F)cc2c(=O)c(C(=O)O)cn(C3CC3)c12 (stereo not drawn) [GATIFLOXACIN]
Not Active: IC50 [1] | Ki [1] | IC50 [2] | IC50 [3] | IC50 [5] | IC50 [6] | IC50 [7] | IC50 [8] | Ki [8]

CC1(C)[C@@H](O[C@H]2O[C@H](C(=O)O)[C@@H](O)[C@H](O)[C@H]2O[C@@H]2O[C@H](C(=O)O)[C@@H](O)[C@H](O)[C@H]2O)CC[C@]2(C)[C@H]3C(=O)C=C4[C@@H]5C[C@@](C)(C(=O)O)CC[C@]5(C)CC[C@@]4(C)[C@]3(C)CC[C@@H]12 [GLYCYRRHIZIN]
Not Active: IC50 [1] | Ki [1] | IC50 [2] | IC50 [3] | IC50 [5] | IC50 [6] | IC50 [7] | IC50 [8] | Ki [8]

C/C=C1\[C@H]2C=C(C)C[C@]1(N)c1ccc(=O)[nH]c1C2 [HUPERZINE A]
Not Active: IC50 [1] | Ki [1] | IC50 [2] | IC50 [3] | IC50 [5] | IC50 [6] | IC50 [7] | IC50 [8] | Ki [8]

O=P1(NCCCl)OCCCN1CCCl (stereo not drawn) [IFOSFAMIDE]
Not Active: IC50 [1] | Ki [1] | IC50 [2] | IC50 [3] | IC50 [5] | IC50 [6] | IC50 [7] | IC50 [8] | Ki [8]

CC1COc2c(N3CCN(C)CC3)c(F)cc3c(=O)c(C(=O)O)cn1c23 (stereo not drawn) [OFLOXACIN]
Not Active: IC50 [1] | Ki [1] | IC50 [2] | IC50 [3] | IC50 [5] | IC50 [6] | IC50 [7] | IC50 [8] | Ki [8]

Oc1cccc2cccnc12 [OXYQUINOLINE]
Not Active: IC50 [1] | Ki [1] | IC50 [2] | IC50 [3] | IC50 [5] | IC50 [6] | IC50 [7] | IC50 [8] | Ki [8]

CC(C)(S)[C@@H](N)C(=O)O [PENICILLAMINE]
Not Active: IC50 [1] | Ki [1] | IC50 [2] | IC50 [3] | IC50 [5] | IC50 [6] | IC50 [7] | IC50 [8] | Ki [8]

O=C1NC(=O)C(c2ccccc2)(c2ccccc2)N1 [PHENYTOIN]
Not Active: IC50 [1] | Ki [1] | IC50 [2] | IC50 [3] | IC50 [5] | IC50 [6] | IC50 [7] | IC50 [8] | Ki [8]

CCC1(c2ccccc2)C(=O)NCNC1=O [PRIMIDONE]
Not Active: IC50 [1] | Ki [1] | IC50 [2] | IC50 [3] | IC50 [5] | IC50 [6] | IC50 [7] | IC50 [8] | Ki [8]

COc1ccc(CN(CCN(C)C)c2ccccn2)cc1 [PYRILAMINE]
Not Active: IC50 [1] | Ki [1] | IC50 [2] | IC50 [3] | IC50 [5] | IC50 [6] | IC50 [7] | IC50 [8] | Ki [8]
